According to the NIST ThermoML archive (doi:10.1021/je8003595):

Tests used:
[1] = 101 kPa, Liquid; for viscosity: Capillary tube (Ostwald / Ubbelohde) method
[2] = mn = molality of the nth substance listed, in mol/kg; details: 101 kPa, Liquid, m2 = 0; for viscosity: Capillary tube (Ostwald / Ubbelohde) method

CC#N [acetonitrile]
[1]
Details | mass density [kg/m3] | viscosity [mPa·s]
293.15 K | 782.499 | 0.3081
298.15 K | 777.099 | 0.2857
303.15 K | 771.674 | 0.2642
308.15 K | 766.217 | 0.2444
310.15 K | 763.991 | 0.2374
313.15 K | 760.702 | 0.2267

CC#N [acetonitrile] + O=C(Oc1ccccc1)c1ccccc1O
[2]
Details | mass density [kg/m3] | viscosity [mPa·s]
293.15 K | 782.499 | 0.3081
298.15 K | 777.099 | 0.2857
303.15 K | 771.674 | 0.2642
308.15 K | 766.217 | 0.2444
310.15 K | 763.991 | 0.2374
313.15 K | 760.702 | 0.2267
